From patent US20120015907A1, “Furopyridine compounds and uses thereof” (NOVARTIS AG, priority 2010, published 2012)

Molecular target: T1, HCV polymerase (Hepatitis C virus genotype 1b, UniProt Q9WMX2)
T1 construct: (His)6 (C)
Test: biochemical
Conditions: polymerase assay of Biological Example 1; read-out: NS5B polymerase IC50

Row | SMILES | IC50 [nM]
1 | CCc1cc2c(C(=O)NC)c(-c3ccc(F)cc3)oc2nc1N(CCc1cccc(OC)c1)S(C)(=O)=O [Example 21.9, 5-ethyl-2-(4-fluorophenyl)-6-(N-(3-methoxyphenethyl)methylsulfonamido)-N-methylfuro[2,3-b]pyridine-3-carboxamide] | 772
2 | CNC(=O)c1c(-c2ccc(F)cc2)oc2nc(N(C)S(C)(=O)=O)c(C(C)=O)cc12 [Example 10, 5-acetyl-2-(4-fluorophenyl)-N-methyl-6-(N-methylmethylsulfonamido)furo[2,3-b]pyridine-3-carboxamide] | 467
3 | CNC(=O)c1c(-c2ccc(F)cc2)oc2nc(N(C)S(C)(=O)=O)c(C(C)(F)F)cc12 [Example 8, 5-(1,1-difluoroethyl)-2-(4-fluorophenyl)-N-methyl-6-(N-methylmethylsulfonamido)furo[2,3-b]pyridine-3-carboxamide] | 125
4 | CNC(=O)c1c(-c2ccc(C)cc2)oc2nc(N(CCCC(CC#N)C(=O)O)S(C)(=O)=O)c(C3CC3)cc12 (stereo not shown) [Example 29.9999, 2-(cyanomethyl)-5-(N-(5-cyclopropyl-3-(methylcarbamoyl)-2-p-tolylfuro[2,3-b]pyridin-6-yl)methylsulfonamido) pentanoic acid] | 2
5 | C=C(c1cc2c(C(=O)NC)c(-c3ccc(F)cc3)oc2nc1N(C)S(C)(=O)=O)C(F)(F)F [Example 2.5, 2-(4-fluorophenyl)-N-methyl-6-(N-methylmethylsulfonamido)-5-(3,3,3-trifluoroprop-1-en-2-yl)furo[2,3-b]pyridine-3-carboxamide] | 662
6 | CCc1cc2c(C(=O)NC)c(-c3ccc(F)cc3)oc2nc1N(CCCCC(C)O)S(C)(=O)=O (stereo not shown) [Example 22.93, 5-ethyl-2-(4-fluorophenyl)-6-(N-(5-hydroxyhexyl)methylsulfonamido)-N-methylfuro[2,3-b]pyridine-3-carboxamide] | 47
7 | CCc1cc2c(C(=O)NC)c(-c3ccc(F)cc3)oc2nc1N(CC1CCOCC1)S(C)(=O)=O [Example 21.994, 5-ethyl-2-(4-fluorophenyl)-N-methyl-6-(N-((tetrahydro-2H-pyran-4-yl)methyl)methylsulfonamido)furo[2,3-b]pyridine-3-carboxamide] | 147
8 | CNC(=O)c1c(-c2ccc(F)cc2)oc2nc(N(CCn3ccnc3)S(C)(=O)=O)c(I)cc12 [Example 23.995, 6-(N-(2-(1H-imidazol-1-yl)ethyl)methylsulfonamido)-2-(4-fluorophenyl)-5-iodo-N-methylfuro[2,3-b]pyridine-3-carboxamide] | 114
9 | C=C(CCCN(c1nc2oc(-c3ccc(C)cc3)c(C(=O)NC)c2cc1C1CC1)S(C)(=O)=O)C(=O)OC [Example 29.9997, methyl 5-(N-(5-cyclopropyl-3-(methylcarbamoyl)-2-p-tolylfuro[2,3-b]pyridin-6-yl)methylsulfonamido)-2-methylenepentanoate] | 15
10 | C=CCc1cc2c(C(=O)NC)c(-c3ccc(F)cc3)oc2nc1N(C)S(C)(=O)=O [Example 4.2, 5-allyl-2-(4-fluorophenyl)-N-methyl-6-(N-methylmethylsulfonamido)furo[2,3-b]pyridine-3-carboxamide] | 128
11 | CNC(=O)c1c(-c2ccc(F)cc2)oc2nc(N(CCC3CCS(=O)(=O)C3)S(C)(=O)=O)c(C3CC3)cc12 (stereo not shown) [Example 25.91, 5-Cyclopropyl-6-{[2-(1,1-dioxo-tetrahydro-thiophen-3-yl)-ethyl]-methanesulfonyl-amino}-2-(4-fluoro-phenyl)-furo[2,3-b]pyridine-3-carboxylic acid methylamide] | 3
12 | CNC(=O)c1c(-c2ccc(C)cc2)oc2nc(N(CCCC3(C(=O)O)CCN(C(=O)OC(C)(C)C)CC3)S(C)(=O)=O)c(C3CC3)cc12 [Example 29.9996, 1-(tert-butoxycarbonyl)-4-(3-(N-(5-cyclopropyl-3-(methylcarbamoyl)-2-p-tolylfuro[2,3-b]pyridin-6-yl)methylsulfonamido)propyl) piperidine-4-carboxylic acid] | 117
13 | CCc1cc2c(C(=O)NC)c(-c3ccc(F)cc3)oc2nc1N(CCCS(=O)(=O)CC)S(C)(=O)=O [Example 23.992, 5-ethyl-6-(N-(3-(ethylsulfonyl)propyl)methylsulfonamido)-2-(4-fluorophenyl)-N-methylfuro[2,3-b] pyridine-3-carboxamide] | 67
14 | CNC(=O)c1c(-c2ccc(F)cc2)oc2nc(N(C)S(C)(=O)=O)c(CCCC(C)O)cc12 (stereo not shown) [Example 4.93, 2-(4-fluorophenyl)-5-(4-hydroxypentyl)-N-methyl-6-(N-methylmethylsulfonamido)furo[2,3-b]pyridine-3-carboxamide] | 216
15 | CNC(=O)c1c(-c2ccc(F)cc2)oc2nc(N(C)S(C)(=O)=O)c(C(C)O)cc12 (stereo not shown) [Example 11, 2-(4-fluorophenyl)-5-(1-hydroxyethyl)-N-methyl-6-(N-methylmethylsulfonamido)furo[2,3-b]pyridine-3-carboxamide] | 825
16 | CCNC(=O)c1c(-c2ccc(F)cc2)oc2nc(N(C)S(C)(=O)=O)c(C3CC3)cc12 [Example 2.7, 5-cyclopropyl-N-ethyl-2-(4-fluorophenyl)-6-(N-methylmethylsulfonamido)furo[2,3-b]pyridine-3-carboxamide] | 44

Row | SMILES | IC50 [nM]
17 | CNC(=O)c1c(-c2ccc(C)cc2)oc2nc(N(CCCC(CC(=O)O)OCCOC)S(C)(=O)=O)c(C3CC3)cc12 (stereo not shown) [Example 29.999996, 6-(N-(5-cyclopropyl-3-(methylcarbamoyl)-2-p-tolylfuro[2,3-b]pyridin-6-yl)methylsulfonamido)-3-(2-methoxyethoxy) hexanoic acid] | 12
18 | CNC(=O)c1c(-c2ccc(C)cc2)oc2nc(N(CCCC(C)(CCOC)C(=O)O)S(C)(=O)=O)c(C3CC3)cc12 (stereo not shown) [Example 42.1, 5-(N-(5-cyclopropyl-3-(methylcarbamoyl)-2-p-tolylfuro[2,3-b]pyridin-6-yl)methylsulfonamido)-2-(2-methoxyethyl)-2-methylpentanoic acid] | 3
19 | CNC(=O)c1c(-c2ccc(C)cc2)oc2nc(N(CCCCO)S(C)(=O)=O)c(C3CC3)cc12 [Example 23.99994, 5-cyclopropyl-6-(N-(4-hydroxybutyl)methylsulfonamido)-N-methyl-2-p-tolylfuro[2,3-b]pyridine-3-carboxamide] | 3
20 | CNC(=O)c1c(-c2ccc(C)cc2)oc2nc(N(CCCCCO)S(C)(=O)=O)c(I)cc12 [Example 23.99991, 6-(N-(5-hydroxypentyl)methylsulfonamido)-5-iodo-N-methyl-2-p-tolylfuro[2,3-b]pyridine-3-carboxamide] | 9
21 | CCOC(=O)CCCCc1cc2c(C(=O)NC)c(-c3ccc(F)cc3)oc2nc1N(C)S(C)(=O)=O [Example 3, Ethyl 5-(2-(4-fluorophenyl)-3-(methylcarbamoyl)-6-(N-methylmethylsulfonamido)furo[2,3-b]pyridin-5-yl)pentanoate] | 34
22 | CNC(=O)c1c(-c2ccc(C)cc2)oc2nc(N(CCC[C@H](COC)C(=O)N3C(=O)OC[C@@H]3Cc3ccccc3)S(C)(=O)=O)c(C3CC3)cc12 [Example 47.72] | 6
23 | CNC(=O)c1c(-c2ccc(C)cc2)oc2nc(N(CCCN3CCCC3=O)S(C)(=O)=O)c(C3CC3)cc12 [Example 23.999997, 5-cyclopropyl-N-methyl-6-(N-(3-(2-oxopyrrolidin-1-yl)propyl)methylsulfonamido)-2-p-tolylfuro[2,3-b] pyridine-3-carboxamide] | 5
24 | CNC(=O)c1c(-c2ccc(F)cc2)oc2nc(N(C)S(C)(=O)=O)c(CCCC(N)=O)cc12 [Example 4.3, 5-(4-amino-4-oxobutyl)-2-(4-fluorophenyl)-N-methyl-6-(N-methylmethylsulfonamido)furo[2,3-b]pyridine-3-carboxamide] | 132
25 | C=C1OCCN(S(C)(=O)=O)c2nc3oc(-c4ccc(F)cc4)c(C(=O)NC)c3cc21 [Example 36.1, 2-(4-Fluoro-phenyl)-9-methanesulfonyl-5-methylene-5,7,8,9-tetrahydro-1,6-dioxa-9,10-diaza-cyclohepta[f]indene-3-carboxylic acid methylamide] | 46
26 | CCc1ccc(-c2oc3nc(N(CCCC4(C(=O)O)CCC4)S(C)(=O)=O)c(C4CC4)cc3c2C(=O)NC)cc1 [Example 29.91, 1-(3-(N-(5-cyclopropyl-2-(4-ethylphenyl)-3-(methylcarbamoyl)furo[2,3-b]pyridin-6-yl)methylsulfonamido)propyl) cyclobutanecarboxylic acid] | 2
27 | C=CCN(c1nc2oc(-c3ccc(C)cc3)c(C(=O)NC)c2cc1C1CC1)S(C)(=O)=O [Example 29.97, 6-(N-allylmethylsulfonamido)-5-cyclopropyl-N-methyl-2-p-tolylfuro[2,3-b]pyridine-3-carboxamide] | 3
28 | CCc1cc2c(C(=O)NC)c(-c3ccc(F)cc3)oc2nc1N(CC1CCN(C(=O)OC(C)(C)C)CC1)S(C)(=O)=O [Example 21.997, tert-butyl 4-((N-(5-ethyl-2-(4-fluorophenyl)-3-(methylcarbamoyl)furo[2,3-b]pyridin-6-yl)methylsulfonamido)methyl)piperidine-1-carboxylate] | 148
29 | CCc1cc2c(C(=O)NC)c(-c3ccc(F)cc3)oc2nc1N(CCCS(=O)(=O)C(C)(C)C)S(C)(=O)=O [Example 23.93, 6-(N-(3-(tert-butylsulfonyl)propyl)methylsulfonamido)-5-ethyl-2-(4-fluorophenyl)-N-methylfuro[2,3-b]pyridine-3-carboxamide] | 44
30 | C=CCCN(c1nc2oc(-c3ccc(F)cc3)c(C(=O)NC)c2cc1I)S(C)(=O)=O [Example 18.3, 6-(N-(but-3-enyl)methylsulfonamido)-2-(4-fluorophenyl)-5-iodo-N-methylfuro[2,3-b]pyridine-3-carboxamide] | 103
31 | CCc1cc2c(C(=O)NC)c(-c3ccc(F)cc3)oc2nc1N(CCC[S+](C)[O-])S(C)(=O)=O (stereo not shown) [Example 23.999, 5-ethyl-2-(4-fluorophenyl)-N-methyl-6-(N-(3-(methylsulfinyl)propyl)methylsulfonamido)furo[2,3-b]pyridine-3-carboxamide] | 79
